Patent US6057351A, “Compounds of the 3-aryl 2,4 dioxo oxazolidine family and use thereof in cosmetic and pharmaceuticals” (Societe L'Oreal S.A., priority 1996, dated 2000)

Key:
[1] = test system: thoracic aorta rings; assay: "Potassic canal opener" type activity: in vitro relaxing power on thoracic aorta rings contracted by KCl 20 mM; type: cell-based
Procedure: Measurement of the "potassic canal opener" type activity of the 4-(5-methyl-2,4-dioxo-5-trifluoromethyl)-oxazolidin-3-yl)-2-trifluoromethylbenzonitrile by measuring in vitro the relaxing power of the molecules of thoracic aorta rings.
The experiments are carried out according to the Newgreen et al (Br. J. Pharmacol., 100, 1990, p. 605-613), Bray et al (Arch. Pharmacol., 344, 1991, p. 351-359) and Wickerden et al (Br. J. Pharmacol., 103, 1991, 1148-1152) methods.
After placing the tissues in the isolated organ tanks, they (smooth aortic muscles) are subjected to an initial tension of 2 g.
After a period of equilibration, the tissues are exposed to a potassium chloride solution (KCl, at 20 mM) in order to obtain a sustained contractile response. After stabilization of this contractile response, the relaxing activity (of the potassic canal opener type) of the molecules to be tested is evaluated in response doses.
During the experiment, two reference molecules are used: cromakalim and Minoxidil.
Results expressed in % of inhibition of the contraction provoked by the KCl at 20 mM.

[2] = biological target: T1, androgen receiver (Rattus norvegicus, UniProt P15207); assay: Affinity for the androgen receiver (Schilling and Liao method), inhibition of testosterone fixation; type: binding
T1 sequence (P15207 1-902): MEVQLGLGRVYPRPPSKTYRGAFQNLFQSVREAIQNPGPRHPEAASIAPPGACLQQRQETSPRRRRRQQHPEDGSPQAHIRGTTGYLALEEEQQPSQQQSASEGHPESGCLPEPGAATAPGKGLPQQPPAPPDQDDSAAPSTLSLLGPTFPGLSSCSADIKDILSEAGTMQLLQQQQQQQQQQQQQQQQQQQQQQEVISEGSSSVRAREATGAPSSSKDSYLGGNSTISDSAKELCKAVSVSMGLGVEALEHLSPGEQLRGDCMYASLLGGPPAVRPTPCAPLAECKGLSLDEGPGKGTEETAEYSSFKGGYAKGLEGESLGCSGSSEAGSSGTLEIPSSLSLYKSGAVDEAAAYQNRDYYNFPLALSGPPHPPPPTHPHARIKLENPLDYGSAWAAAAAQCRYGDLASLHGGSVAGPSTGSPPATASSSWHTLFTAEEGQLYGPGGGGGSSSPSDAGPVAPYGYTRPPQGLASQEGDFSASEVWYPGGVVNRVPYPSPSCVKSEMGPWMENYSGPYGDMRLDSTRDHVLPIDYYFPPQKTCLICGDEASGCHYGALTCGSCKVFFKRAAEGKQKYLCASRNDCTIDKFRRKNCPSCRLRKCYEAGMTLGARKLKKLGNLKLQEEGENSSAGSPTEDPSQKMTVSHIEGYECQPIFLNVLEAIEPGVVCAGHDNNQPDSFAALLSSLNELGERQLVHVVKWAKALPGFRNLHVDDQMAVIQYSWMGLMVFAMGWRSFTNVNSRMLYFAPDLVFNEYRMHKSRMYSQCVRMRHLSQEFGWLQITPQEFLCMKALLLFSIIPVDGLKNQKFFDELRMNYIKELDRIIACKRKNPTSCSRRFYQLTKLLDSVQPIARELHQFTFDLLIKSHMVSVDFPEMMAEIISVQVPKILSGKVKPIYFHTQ
Procedure: Measuring the affinity of the 4-(5-methyl-2,4-dioxo-5-trifluoromethyl)-oxazolidin-3-yp)-2-trifluoromethylbenzonitrile for the androgen receiver.
These measurements of receiving affinity for the androgen receiver are executed according to the Schilling and Liao method, described in "The Prostate", 1984, 5.p. 581-588.
The compound is tested at several concentrations. During the experiment, the reference molecule(mibolerone) is tested at the same time at 8 concentrations in order to validate the experiment.
The results are expressed in % of inhibition of the fixation of the testosterone on its receiver. The internal reference (mibolerone) inhibits up to 50% of this fixation at a concentration of 4.3 nM.

Compound: CC1(C(F)(F)F)OC(=O)N(c2ccc(C#N)c(C(F)(F)F)c2)C1=O (centres unmarked) [4-(5-methyl-2,4-dioxo-5-trifluoromethyl)-oxazolidin-3-yl)-2-trifluoromethylbenzonitrile]
- % of inhibition of the contraction provoked by the KCl at 20 mM ([1]; compound at 0.1 μM): 12%
- % of inhibition of the contraction provoked by the KCl at 20 mM ([1]; compound at 1 μM): 69%
- % of inhibition of the contraction provoked by the KCl at 20 mM ([1]; compound at 10 μM): 95%
- activity profile (potassic canal opener / anti-androgen) ([1]; conclusion drawn from the results of Examples 2 and 3): mixed activity, with a preferred activity for the K* Agonist facet
- inhibition at 0.1 µM ([2]; compound at 0.1 μM, read-out: % of inhibition of the fixation of the testosterone on its receiver): 2%
- inhibition at 1 µM ([2]; compound at 1 μM, read-out: % of inhibition of the fixation of the testosterone on its receiver): 17%
- inhibition at 10 µM ([2]; compound at 10 μM, read-out: % of inhibition of the fixation of the testosterone on its receiver): 56%

Compound: CC1(C)Oc2ccc(C#N)cc2C(N2CCCC2=O)C1O (centres unmarked) [Cromakalim, cromakalim]
- % of inhibition of the contraction provoked by the KCl at 20 mM ([1]; compound at 0.1 μM): 46%
- % of inhibition of the contraction provoked by the KCl at 20 mM ([1]; compound at 1 μM): 86%
- % of inhibition of the contraction provoked by the KCl at 20 mM ([1]; compound at 10 μM): 100%

Compound: Nc1cc(N2CCCCC2)nc(N)[n+]1[O-] [Minoxidil, 3-oxide pyrimidine 6-piperidino 2,4-diamino]
- % of inhibition of the contraction provoked by the KCl at 20 mM ([1]; compound at 0.1 μM): 25%
- % of inhibition of the contraction provoked by the KCl at 20 mM ([1]; compound at 1 μM): 65%
- % of inhibition of the contraction provoked by the KCl at 20 mM ([1]; compound at 10 μM): 95%

Compound: C[C@@H]1CC2=CC(=O)CC[C@@H]2[C@H]2CC[C@@]3(C)[C@@H](CC[C@]3(C)O)[C@@H]21 [mibolerone]
- IC50 [2]: 4.3 nM
